# Data from patent US20090181963A1, “3H-[1,2,3]TRIAZOLO[4,5-D]PYRIMIDINE COMPOUNDS, THEIR USE AS mTOR KINASE AND PI3 KINASE INHIBITORS, AND THEIR [sequence]” (Wyeth, priority 2008, published 2009).
# Structures can show the parent of a compound that is named as a salt. Where two headings read alike, the source gives them in different places.
# Tests used:
# PI3K = settings: reported, Raynaud et al 2007; read-out: IC50 PI3K (second named); cited from earlier work
# [1] = test system: human tumor xenograft models; settings: cited from earlier work
# PI3 Kinase γ = PI3 Kinase γ (Homo sapiens, UniProt P48736); experiment: Fluorescence polarization assay for PI3K (PI3 Kinase γ); assay type: biochemical; settings: diC8-PI(4,5)P2 substrate, 25 μM ATP, one hour at 25° C.
# PI3 Kinase α = PI3 Kinase α (Homo sapiens, UniProt P42336); experiment: Fluorescence polarization assay for PI3K (PI3 Kinase α); assay type: biochemical; settings: diC8-PI(4,5)P2 substrate, 25 μM ATP, one hour at 25° C.
# Description: Nunc 384 well black polypropylene fluorescent plates were used for PI3K assays. Reactions were quenched by the addition of EDTA to a final concentration of 10 μM. Final reaction volumes were 10 ml. […] Reactions were allowed to proceed for one hour at 25° C. After I hour, GST-tagged GRP1 (general receptor for phosphoinositides) PH domain fusion protein was added to a final concentration of 100 nM, and BODIPY-TMRI(1,3,4,5)P4 (Echelon) was also added to a final concentration of 5 nM. Final sample volumes were 25 μl with a final DMSO concentration of 0.8%. Assay Plates were read on PerkinElmer Envision plate readers with appropriate filters for Tamra [BODIPY-TMRI(1,3,4,5)P4]. Data obtained were used to calculate enzymatic activity and enzyme inhibition by inhibitor compounds.
# mTOR enzymes = mTOR enzymes (Homo sapiens, UniProt P42345); settings: read-out: IC50 mTOR enzymes; reported in the literature; cited from earlier work
# PI3 Kinase γ, sequence (P48736 whole entry): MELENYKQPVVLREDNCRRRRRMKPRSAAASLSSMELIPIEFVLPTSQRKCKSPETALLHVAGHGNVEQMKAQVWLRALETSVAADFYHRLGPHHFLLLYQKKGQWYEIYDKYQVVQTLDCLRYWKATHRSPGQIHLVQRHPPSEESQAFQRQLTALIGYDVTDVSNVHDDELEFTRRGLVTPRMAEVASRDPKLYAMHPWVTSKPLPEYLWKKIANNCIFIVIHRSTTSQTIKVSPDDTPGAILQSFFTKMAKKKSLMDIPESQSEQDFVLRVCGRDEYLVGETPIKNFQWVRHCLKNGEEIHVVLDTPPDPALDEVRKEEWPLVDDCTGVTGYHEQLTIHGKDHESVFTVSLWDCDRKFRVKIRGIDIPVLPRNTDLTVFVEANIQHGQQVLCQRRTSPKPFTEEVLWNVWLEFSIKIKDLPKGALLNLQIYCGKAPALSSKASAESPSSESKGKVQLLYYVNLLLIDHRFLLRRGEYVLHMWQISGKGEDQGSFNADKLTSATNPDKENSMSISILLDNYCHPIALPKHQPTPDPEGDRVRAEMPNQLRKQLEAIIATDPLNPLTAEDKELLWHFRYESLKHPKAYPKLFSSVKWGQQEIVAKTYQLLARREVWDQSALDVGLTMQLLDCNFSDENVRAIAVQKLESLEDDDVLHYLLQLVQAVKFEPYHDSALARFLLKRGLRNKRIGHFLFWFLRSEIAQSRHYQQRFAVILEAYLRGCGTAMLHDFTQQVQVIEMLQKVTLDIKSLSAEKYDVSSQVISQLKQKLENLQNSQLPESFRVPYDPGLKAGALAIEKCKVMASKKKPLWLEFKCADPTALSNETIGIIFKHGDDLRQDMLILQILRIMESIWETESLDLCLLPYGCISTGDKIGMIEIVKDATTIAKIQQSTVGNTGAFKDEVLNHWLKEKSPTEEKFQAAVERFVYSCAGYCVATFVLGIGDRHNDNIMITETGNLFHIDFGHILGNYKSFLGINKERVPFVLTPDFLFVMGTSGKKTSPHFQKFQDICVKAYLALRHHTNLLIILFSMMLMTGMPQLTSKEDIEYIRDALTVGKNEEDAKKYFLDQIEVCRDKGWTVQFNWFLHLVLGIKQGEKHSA
# PI3 Kinase α, sequence (P42336 whole entry): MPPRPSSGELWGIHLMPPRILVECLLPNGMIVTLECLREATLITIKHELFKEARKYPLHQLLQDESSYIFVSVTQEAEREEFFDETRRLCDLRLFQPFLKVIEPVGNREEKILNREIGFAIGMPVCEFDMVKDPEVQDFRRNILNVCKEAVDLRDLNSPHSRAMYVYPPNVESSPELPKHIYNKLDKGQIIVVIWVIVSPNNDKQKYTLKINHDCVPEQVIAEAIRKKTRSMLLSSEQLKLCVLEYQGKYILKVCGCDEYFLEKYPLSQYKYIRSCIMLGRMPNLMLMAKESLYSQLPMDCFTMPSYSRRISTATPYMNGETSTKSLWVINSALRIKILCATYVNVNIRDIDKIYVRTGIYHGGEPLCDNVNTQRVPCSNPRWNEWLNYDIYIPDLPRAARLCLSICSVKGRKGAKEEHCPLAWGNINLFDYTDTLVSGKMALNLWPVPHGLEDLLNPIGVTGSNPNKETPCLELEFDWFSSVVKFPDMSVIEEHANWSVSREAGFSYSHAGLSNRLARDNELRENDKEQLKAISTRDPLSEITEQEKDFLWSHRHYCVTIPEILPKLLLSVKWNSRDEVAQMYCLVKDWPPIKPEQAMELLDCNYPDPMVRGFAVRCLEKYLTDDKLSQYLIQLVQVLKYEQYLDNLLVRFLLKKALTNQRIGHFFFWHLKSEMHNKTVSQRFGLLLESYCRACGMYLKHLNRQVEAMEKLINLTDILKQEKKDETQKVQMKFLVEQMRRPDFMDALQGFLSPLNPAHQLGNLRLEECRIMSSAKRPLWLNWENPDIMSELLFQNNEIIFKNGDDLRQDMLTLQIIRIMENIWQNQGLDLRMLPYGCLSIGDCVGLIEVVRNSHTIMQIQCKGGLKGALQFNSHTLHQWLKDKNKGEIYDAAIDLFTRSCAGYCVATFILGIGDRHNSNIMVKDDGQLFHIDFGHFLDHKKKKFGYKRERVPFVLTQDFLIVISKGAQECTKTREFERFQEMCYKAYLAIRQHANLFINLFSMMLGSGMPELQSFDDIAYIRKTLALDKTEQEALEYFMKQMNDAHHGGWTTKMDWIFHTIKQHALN
# PI3 Kinase α, sequence (P27986 whole entry partner): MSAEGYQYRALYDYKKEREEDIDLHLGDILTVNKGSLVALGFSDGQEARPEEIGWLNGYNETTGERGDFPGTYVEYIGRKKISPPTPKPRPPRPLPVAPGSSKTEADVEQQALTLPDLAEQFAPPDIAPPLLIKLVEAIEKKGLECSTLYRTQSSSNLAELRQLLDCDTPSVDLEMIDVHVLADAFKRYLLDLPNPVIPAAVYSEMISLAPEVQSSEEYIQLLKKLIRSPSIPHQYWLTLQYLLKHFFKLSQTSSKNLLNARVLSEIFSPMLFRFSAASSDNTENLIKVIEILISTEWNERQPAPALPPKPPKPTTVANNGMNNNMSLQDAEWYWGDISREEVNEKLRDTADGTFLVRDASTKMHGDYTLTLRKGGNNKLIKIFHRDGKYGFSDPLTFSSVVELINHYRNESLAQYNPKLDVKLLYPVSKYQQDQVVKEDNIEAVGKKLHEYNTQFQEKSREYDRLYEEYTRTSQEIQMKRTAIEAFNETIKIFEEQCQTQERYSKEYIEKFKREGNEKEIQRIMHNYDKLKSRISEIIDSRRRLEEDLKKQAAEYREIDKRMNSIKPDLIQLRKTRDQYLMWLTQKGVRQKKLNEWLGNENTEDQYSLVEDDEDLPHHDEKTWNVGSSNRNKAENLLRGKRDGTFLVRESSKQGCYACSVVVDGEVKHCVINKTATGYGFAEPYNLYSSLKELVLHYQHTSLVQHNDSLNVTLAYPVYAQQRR
Structure (SMILES),IC50 (PI3 Kinase γ),IC50 (PI3 Kinase α),also measured
"Oc1cccc(-c2nc(N3CCOCC3)c3oc4ncccc4c3n2)c1 [PI103, 3-(4-(4-morpholinyl)pyrido[3′,2′:4,5]furo[3,2-d]pyrimidin-2-yl)phenol]",–,–,"IC50 (PI3K): […]; activity in human tumor xenograft models ([1]; I.P. dosing in mice, U87MG, PC3, MDA-MB-468, MDA-MB-435, HCT 116, SKOV3, IGROV-1): demonstrated activity"
"Cn1nnc2c(N3CCOCC3)nc(-c3ccc(NC(=O)Nc4ccsc4)cc3)nc21 [Example 201, 1-[4-(3-methyl-7-morpholin-4-yl-3H-[1,2,3]triazolo[4,5-d]pyrimidin-5-yl)phenyl]-3-(3-thienyl)urea]",25.5 nM,4.5 nM,melting point: 272 °C
"FC(F)c1nc2ccccc2n1-c1nc(N2CCOCC2)nc(N2CCOCC2)n1 [ZSTK474, 2-(2-difluoromethylbenzoimidazol-1-yl)-4,6-dimorpholino-1,3,5-triazine]",–,–,"tumor growth in mouse human xenograft cancer models ([1]; chronic oral administration, 400 mg/kg, A549, PC-3, WiDr): completely inhibited growth; IC50 (mTOR enzymes): > 10000 nM"
"Cn1c(=O)n(-c2ccc(C(C)(C)C#N)cc2)c2c3cc(-c4cnc5ccccc5c4)ccc3ncc21 [NVP-BEZ-235, 2-methyl-2-(4-(3-methyl-2-oxo-8-(quinolin-3-yl)-2,3-dihydro-1H-imidazo[4,5-c]quinolin-1-yl)phenyl)propanenitrile]",–,–,activity in human tumor xenograft models ([1]; prostrate (PC-3) and glioblastoma (U-87)): demonstrated activity
CO[C@H]1C[C@@H]2CC[C@@H](C)[C@@](O)(O2)C(=O)C(=O)N2CCCC[C@H]2C(=O)O[C@H]([C@H](C)C[C@@H]2CC[C@@H](OC(=O)C(C)(CO)CO)[C@H](OC)C2)CC(=O)[C@H](C)/C=C(\C)[C@@H](O)[C@@H](OC)C(=O)[C@H](C)C[C@H](C)/C=C/C=C/C=C/1C [Torisel],–,–,activity in xenograft mouse model ([1]; NOS/SCID xenograft mouse model of acute lymphoblastic leukemia): active
"CCn1nnc2c(N3CCOCC3)nc(-c3ccc(NC(=O)Nc4ccc(C(=O)N(C)CCN(C)C)cc4)cc3)nc21 [Example 45, N-[2-(dimethylamino)ethyl]-4-({[4-(3-ethyl-7-morpholin-4-yl-3H-[1,2,3]triazolo[4,5-d]pyrimidin-5-yl)phenyl]carbamoyl}amino)-N-methylbenzamide]",11.3 nM,< 2.2 nM,–
"CN(C)c1ccc(NC(=O)Nc2ccc(-c3nc(N4CCOCC4)c4nnn(CC(F)(F)F)c4n3)cc2)cc1 [Example 137, 1-[4-(dimethylamino)phenyl]-3-{4-[7-morpholin-4-yl-3-(2,2,2-trifluoroethyl)-3H-[1,2,3]triazolo[4,5-d]pyrimidin-5-yl]phenyl}urea]",30.5 nM,13 nM,–
"O=C(Nc1ccncc1)Nc1ccc(-c2nc(N3CCOCC3)c3nnn(C4CCOCC4)c3n2)cc1 (as salt: HCl) [Example 198, 1-{4-[7-morpholin-4-yl-3-(tetrahydro-2H-pyran-4-yl)-3H-[1,2,3]triazolo[4,5-d]pyrimidin-5-yl]phenyl}-3-pyridin-4-ylurea]",–,–,melting point: 332 °C

# Now from value to compound, other results behind:
IC50 (PI3 Kinase γ),IC50 (PI3 Kinase α),Structure (SMILES),also measured
132 nM,83 nM,"c1cc(-c2nc(N3CCOCC3)c3nnn(CCCN4CCCC4)c3n2)c2cn[nH]c2c1 [Example 11, 5-(1H-indazol-4-yl)-7-morpholin-4-yl-3-(3-pyrrolidin-1-ylpropyl)-3H-[1,2,3]triazolo[4,5-d]pyrimidine]",–
1230 nM,204 nM,"CCN1CCCC1Cn1nnc2c(N3CCOCC3)nc(-c3cccc(O)c3)nc21 (centres unmarked) [Example 172, 3-{3-[(1-ethylpyrrolidin-2-yl)methyl]-7-morpholin-4-yl-3H-[1,2,3]triazolo[4,5-d]pyrimidin-5-yl}phenol]",–
47 nM,20 nM,"O=C(Nc1ccc(-c2nc(N3CCOCC3)c3nnn(CCO)c3n2)cc1)Nc1cccnc1 [Example 184, 1-{4-[3-(2-hydroxyethyl)-7-morpholin-4-yl-3H-[1,2,3]triazolo[4,5-d]pyrimidin-5-yl]phenyl}-3-pyridin-3-ylurea]",–
